Tests used:
[1] = target: cathepsin D (Homo sapiens, UniProt P07339); experiment: Inhibition of cathepsin D catalytic activity (Ki); assay type: biochemical; conditions: pH 4.0, 37° C., read-out: CDK
Experimental: A substrate peptide NH3-ELDLAVEFWHDR-CO2 (SEQ ID NO.:1) (used for inhibition assay of memapsin 2, memapsin 1, and cathepsin D) was dissolved at 2 mg/ml in DMSO and diluted 1:100 in 0.1 M sodium acetate, pH 4.0 just prior to assay. Inhibitor dissolved in DMSO was diluted into 0.1 M sodium acetate, pH 4.0 (1:100 dilution). A […] aliquot of the inhibitor solution in pH 4 buffer was combined with […] of 0.1 M sodium acetate containing 100-200 nM of memapsin 1, memapsin 2, or cathepsin D. Following a pre-incubation at 37° C., the proteolytic assay was initated by addition of […] of the substrate diluted into pH 4 buffer, and incubation continued at 37° C. Aliquots were removed at time intervals, and combined with an equal volume of MALDI-TOF matrix (α-hydroxycinnamic acid in acetone, 20 mg/ml) and immediately spotted in duplicate onto a stainless-steel MALDI sample plate. MALDI-TOF mass spectrometry was performed on a PE Biosystems Voyager DE instrument at the Molecular Biology Resource Center on campus. The instrument was operated at 25,000 accelerating volts in positive mode with a 150 ns delay. Ions with a mass-to-charge ratio (m/z) were detected in the range of 650-2000 atomic mass units. Data were analyzed by the Voyager Data Explorer module to obtain ion intensity data for mass species of substrates and corresponding products in a given mixture. Relative product formation was calculated as the ratio of signal intensity of the product to the sum of signal intensities of both product and the corresponding substrate. Relative product formed per unit time was obtained from non-linear regression analysis of the data representing the initial 15% formation of product using the model: 1−e^−kT, where k was the relative hydrolytic rate constant and T was time in seconds. Alternatively, relative hydrolytic rates were determined using a fluorogenic cleavage assay (Ermolieff, J. et al., Biochemistry, 39: 12450-12456 (2000)). Initial rates from either method were expressed relative to uninhibited controls and the inhibition constant Ki was determined by a non-linear fit to a tight-binding model of competitive inhibition (Bieth, J., Bayer-Symposium V: Proteinase Inhibitors, pp 463-469, Spinger-Varlag, Berlin (1994)). Results are shown in Table 1 above (M2K, CDK, and M1K columns represent, respectively, the K1 values obtained for memapsin 2, cathepsin D and memapsin 1).

[2] = target: memapsin 2 (Homo sapiens, UniProt P56817); experiment: Inhibition of memapsin 2 catalytic activity (Ki); assay type: biochemical; conditions: memapsin 2, pH 4, 37° C.; read-out: M2K
How it was run: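 Run at 37 °C and pH 4: compound and enzyme pre-incubated 20 min before FS-2 fluorogenic substrate started hydrolysis,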

[3] = test system: Aβ production in Chinese hamster ovary cells that over-express human APP695 with the London and Swedish mutations; experiment: Cellular Aβ IC50 determination (Aβ40 sandwich ELISA); conditions: Cricetulus griseus, CHO, 24 h, read-out: Cell, Aβ40, CHO cells over-expressing human APP695 (London and Swedish mutations), 24 h

Sequence of memapsin 2 (P56817 46-501): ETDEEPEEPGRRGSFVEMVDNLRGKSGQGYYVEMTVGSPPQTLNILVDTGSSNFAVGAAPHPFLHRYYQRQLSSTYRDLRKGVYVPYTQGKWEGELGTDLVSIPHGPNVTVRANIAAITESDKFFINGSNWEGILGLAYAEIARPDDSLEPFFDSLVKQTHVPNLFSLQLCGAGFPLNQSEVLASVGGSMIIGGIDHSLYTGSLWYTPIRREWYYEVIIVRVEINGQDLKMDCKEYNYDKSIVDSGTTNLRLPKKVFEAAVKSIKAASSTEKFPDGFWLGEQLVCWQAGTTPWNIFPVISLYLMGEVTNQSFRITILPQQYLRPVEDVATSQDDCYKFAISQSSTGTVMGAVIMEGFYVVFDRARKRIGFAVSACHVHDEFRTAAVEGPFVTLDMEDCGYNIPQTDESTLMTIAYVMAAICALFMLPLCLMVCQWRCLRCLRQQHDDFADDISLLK
Sequence of cathepsin D (P07339 65-412, species assumed): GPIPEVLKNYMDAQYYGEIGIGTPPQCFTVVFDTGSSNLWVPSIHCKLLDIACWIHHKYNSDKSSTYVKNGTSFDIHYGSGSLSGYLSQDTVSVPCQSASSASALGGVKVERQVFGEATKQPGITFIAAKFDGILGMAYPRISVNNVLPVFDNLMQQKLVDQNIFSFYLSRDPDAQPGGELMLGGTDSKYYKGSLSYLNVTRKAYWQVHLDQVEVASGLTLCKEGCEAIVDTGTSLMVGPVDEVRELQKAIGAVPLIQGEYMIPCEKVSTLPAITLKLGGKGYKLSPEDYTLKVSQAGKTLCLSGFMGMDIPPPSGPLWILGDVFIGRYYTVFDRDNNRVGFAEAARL

Ki [1] | Ki [2] | IC50 [3] | Structure (SMILES)
> 501 nM | > 501 nM | > 5000 nM | CC(NC(=O)c1cc(C(=O)NC(Cc2ccccc2)C(O)CNCC2CCCN(C)C2)cc(N(C)S(C)(=O)=O)c1)c1ccccc1 (stereo not drawn) [N1-(3-hydroxy-4-((1-methylpiperidin-3-yl)methylamino)-1-phenylbutan-2-yl)-5-(N-methylmethylsulfonamido)-N3-(1-phenylethyl)isophthalamide]
> 501 nM | < 300 nM | < 1000 nM | COc1cccc(CNCC(O)C(Cc2ccccc2)NC(=O)c2cc(C(=O)NC(C)c3nc(CO)co3)cc(N(C)S(C)(=O)=O)c2)c1 (stereo not drawn) [N1-(3-hydroxy-4-(3-methoxybenzylamino)-1-phenylbutan-2-yl)-N3-(1-(4-(hydroxymethyl)oxazol-2-yl)ethyl)-5-(N-methylmethylsulfonamido)isophthalamide]
< 300 nM | 301 to 500 nM | < 1000 nM | COc1cccc(CNCC(O)C(Cc2ccccc2)NC(=O)c2cc(C(=O)NC(C)c3ccccc3)c(C)cc2C)c1 (stereo not drawn) [N1-(3-hydroxy-4-(3-methoxybenzylamino)-1-phenylbutan-2-yl)-4,6-dimethyl-N3-(1-phenylethyl)isophthalamide]
> 501 nM | < 300 nM | < 1000 nM | CC(NC(=O)c1cc(C(=O)NC(Cc2ccccc2)C(O)CNCc2cccc(CN(C)C)c2)cc(N(C)S(C)(=O)=O)c1)c1ccccc1 (stereo not drawn) [N1-(4-(3-((dimethylamino)methyl)benzylamino)-3-hydroxy-1-phenylbutan-2-yl)-5-(N-methylmethylsulfonamido)-N3-(1-phenylethyl)isophthalamide]
< 300 nM | < 300 nM | < 1000 nM | Cc1csc(CN(C)C(=O)c2cccc(C(=O)NC(Cc3ccccc3)C(O)CNCc3cccc(C(C)C)c3)c2)n1 (stereo not drawn) [N1-(3-hydroxy-4-(3-isopropylbenzylamino)-1-phenylbutan-2-yl)-N3-methyl-N3-((4-methylthiazol-2-yl)methyl)isophthalamide]
< 300 nM | < 300 nM | < 1000 nM | COc1cccc(CNCC(O)C(Cc2ccccc2)NC(=O)c2cc(C(=O)NC(C)C3CCCCC3)cc(N(C)S(C)(=O)=O)c2)c1 (stereo not drawn) [N1-(1-cyclohexylethyl)-N3-(3-hydroxy-4-(3-methoxybenzylamino)-1-phenylbutan-2-yl)-5-(N-methylmethylsulfonamido)isophthalamide]
< 300 nM | < 300 nM | < 1000 nM | CC(NC(=O)c1cc(C(=O)NC(Cc2ccccc2)C(O)CNCc2cncc(F)c2)cc(N(C)S(C)(=O)=O)c1)c1ccccc1 (stereo not drawn) [N1-(4-((5-fluoropyridin-3-yl)methylamino)-3-hydroxy-1-phenylbutan-2-yl)-5-(N-methylmethylsulfonamido)-N3-(1-phenylethyl)isophthalamide]
< 300 nM | < 300 nM | < 1000 nM | COc1cccc(CNCC(O)C(Cc2ccccc2)NC(=O)c2cc(C(=O)NC(C)c3ccccc3)cc(N(C)S(C)(=O)=O)c2)c1F (stereo not drawn) [N1-(4-(2-fluoro-3-methoxybenzylamino)-3-hydroxy-1-phenylbutan-2-yl)-5-(N-methylmethylsulfonamido)-N3-(1-phenylethyl)isophthalamide]
> 501 nM | > 501 nM | > 5000 nM | CC(NC(=O)c1cc(C(=O)NC(Cc2ccccc2)C(O)CNCCN2CCCCC2)cc(N(C)S(C)(=O)=O)c1)c1ccccc1 (stereo not drawn) [N1-(3-hydroxy-1-phenyl-4-(2-(piperidin-1-yl)ethylamino)butan-2-yl)-5-(N-methylmethylsulfonamido)-N3-(1-phenylethyl)isophthalamide]
< 300 nM | < 300 nM | < 1000 nM | CC(C)Cc1cccc(CNCC(O)C(Cc2ccccc2)NC(=O)c2cc(C(=O)NC(C)c3ccccc3)cc(N(C)S(C)(=O)=O)c2)c1 (stereo not drawn) [N1-(3-hydroxy-4-(3-isobutylbenzylamino)-1-phenylbutan-2-yl)-5-(N-methylmethylsulfonamido)-N3-(1-phenylethyl)isophthalamide]

More lines, now with the values behind:

Structure (SMILES) | Ki [1] | Ki [2] | IC50 [3]
CCc1cccc(CNCC(O)C(Cc2ccccc2)NC(=O)c2cc(C(=O)NC(C)c3ccccc3)cc(N(C)S(C)(=O)=O)c2)c1 (stereo not drawn) [N1-(4-(3-ethylbenzylamino)-3-hydroxy-1-phenylbutan-2-yl)-5-(N-methylmethylsulfonamido)-N3-(1-phenylethyl)isophthalamide] | < 300 nM | < 300 nM | < 1000 nM
Cc1csc(CN(C)C(=O)c2cccc(C(=O)NC(Cc3ccccc3)C(O)CNCc3cc(C)on3)c2)n1 (stereo not drawn) [N1-(3-hydroxy-4-((5-methylisoxazol-3-yl)methylamino)-1-phenylbutan-2-yl)-N3-methyl-N3-((4-methylthiazol-2-yl)methyl)isophthalamide] | 301 to 500 nM | 301 to 500 nM | 1000 to 5000 nM
Cc1cc(CNCC(O)C(Cc2ccccc2)NC(=O)c2cccc(C(=O)N(C)Cc3nc(C)cs3)c2)on1 (stereo not drawn) [N1-(3-hydroxy-4-((3-methylisoxazol-5-yl)methylamino)-1-phenylbutan-2-yl)-N3-methyl-N3-((4-methylthiazol-2-yl)methyl)isophthalamide] | > 501 nM | < 300 nM | > 5000 nM
COc1ccccc1CCNCC(O)C(Cc1ccccc1)NC(=O)c1cc(C(=O)NC(C)c2ccccc2)cc(N(C)S(C)(=O)=O)c1 (stereo not drawn) [N1-(3-hydroxy-4-(2-methoxyphenethylamino)-1-phenylbutan-2-yl)-5-(N-methylmethylsulfonamido)-N3-(1-phenylethyl)isophthalamide] | < 300 nM | < 300 nM | 1000 to 5000 nM
CC(NC(=O)c1cc(C(=O)NC(Cc2ccccc2)C(O)CNC(C)C2CCCCC2)cc(N(C)S(C)(=O)=O)c1)c1ccccc1 (stereo not drawn) [N1-(4-(1-cyclohexylethylamino)-3-hydroxy-1-phenylbutan-2-yl)-5-(N-methylmethylsulfonamido)-N3-(1-phenylethyl)isophthalamide] | < 300 nM | < 300 nM | < 1000 nM
COc1ccc(CCNCC(O)C(Cc2ccccc2)NC(=O)c2cc(C(=O)NC(C)c3ccccc3)cc(N(C)S(C)(=O)=O)c2)cc1 (stereo not drawn) [N1-(3-hydroxy-4-(4-methoxyphenethylamino)-1-phenylbutan-2-yl)-5-(N-methylmethylsulfonamido)-N3-(1-phenylethyl)isophthalamide] | < 300 nM | < 300 nM | < 1000 nM
CC(NC(=O)c1cc(C(=O)NC(Cc2ccccc2)C(O)CNCc2cnc3ccccc3c2)cc(N(C)S(C)(=O)=O)c1)c1ccccc1 (stereo not drawn) [N1-(3-hydroxy-1-phenyl-4-(quinolin-3-ylmethylamino)butan-2-yl)-5-(N-methylmethylsulfonamido)-N3-(1-phenylethyl)isophthalamide] | < 300 nM | < 300 nM | < 1000 nM
Cc1cc(CNCC(O)C(Cc2ccccc2)NC(=O)c2cc(C(=O)NC(C)c3ccccc3)cc(N(C)S(C)(=O)=O)c2)on1 (stereo not drawn) [N1-(3-hydroxy-4-((3-methylisoxazol-5-yl)methylamino)-1-phenylbutan-2-yl)-5-(N-methylmethylsulfonamido)-N3-(1-phenylethyl)isophthalamide] | < 300 nM | < 300 nM | < 1000 nM
COc1cccc(CCNCC(O)C(Cc2ccccc2)NC(=O)c2cccc(C(=O)N(C)Cc3nc(C)cs3)c2)c1 (stereo not drawn) [N1-(3-hydroxy-4-(3-methoxyphenethylamino)-1-phenylbutan-2-yl)-N3-methyl-N3-((4-methylthiazol-2-yl)methyl)isophthalamide] | 301 to 500 nM | > 501 nM | > 5000 nM
